Test results published in patent US20240409552A1, “GUAIANOLIDE OLIGOMERS, PREPARATION METHOD AND APPLICATION” (KUNMING INSTITUTE OF BOTANY, CHINESE ACADEMY OF SCIENCES, priority 2021, published 2024).

What was measured:
Type in all cases: cell-based
HepG2 cells = experiment: MTT antihepatoma assay, HepG2 cells; conditions: Homo sapiens, 48 h incubation
Protocol: (§1) • (1). […] The plates were measured at 490 nm using a microplate reader (BIO-RAD, USA). The inhibitory ratio was calculated as [(A490 negative−A490 treated)/(A490 negative−A490 blank)]×100%. The IC50 values were calculated with GraphPad Prism 5 (GraphPad Software, California, USA). Repeat the experiment three times.

Huh7 cells = experiment: MTT antihepatoma assay, Huh7 cells; conditions: Homo sapiens, Huh-7, 48 h incubation
Protocol: as §1

SK-Hep-1 cells = experiment: MTT antihepatoma assay, SK-Hep-1 cells; conditions: Homo sapiens, SK-HEP1, 48 h incubation
Protocol: as §1

Row | IC50 (HepG2 cells) [µM] | IC50 (Huh7 cells) [µM] | IC50 (SK-Hep-1 cells) [µM] | SMILES
1 | 12.8 | 20.2 | 11.2 | C=C1C(=O)O[C@@H]2C3=C([C@H]4C[C@]3(C)[C@]3(C4)C(=O)O[C@H]4[C@H]3CCC(C)=C3C[C@H]5O[C@@]5(C)[C@@H]34)[C@@](C)(O)CC[C@@H]12 [Compound 1]
2 | 5.9 | 11.9 | 16.5 | C=C1C(=O)O[C@@H]2C3=C([C@H]4C[C@]3(C)[C@]3(C4)C(=O)O[C@@H]4C5C(=C(C)CC[C@H]43)CC[C@@]5(C)O)[C@@](C)(O)CC[C@@H]12 (stereo partly drawn) [Compound 2]
3 | 6.2 | 6.8 | 7.2 | C=C1C(=O)O[C@@H]2C3=C([C@H]4C[C@]3(C)[C@]3(C4)C(=O)O[C@@H]4C5=C([C@H]6C[C@]5(C)[C@]5(C6)C(=O)O[C@@H]6[C@H]7C(C)=CC[C@@]78O[C@@]8(C)CC[C@H]65)[C@@](C)(O)CC[C@H]43)[C@@](C)(O)CC[C@@H]12 [Compound 3]
4 | 14.7 | 10.9 | 7.9 | C=C1C(=O)O[C@@H]2C3=C([C@H]4C[C@]3(C)[C@]3(C4)C(=O)O[C@@H]4C5=C([C@H]6C[C@]5(C)[C@]5(C6)C(=O)O[C@@H]6C7=C([C@H]8C[C@]7(C)[C@]7(C8)C(=O)O[C@@H]8[C@H]9C(C)=CC[C@@]9%10O[C@@]%10(C)CC[C@@H]87)[C@@](C)(O)CC[C@H]65)[C@@](C)(O)CC[C@H]43)[C@@](C)(O)CC[C@@H]12 [Compound 4]
5 | 12.8 | 10.9 | 22.5 | CNC(=O)c1cc(Oc2ccc(NC(=O)Nc3ccc(Cl)c(C(F)(F)F)c3)cc2)ccn1 [sorafenib, reference compound]
